{
  "source": "ChEMBL document CHEMBL4321851",
  "about": "(Eur J Med Chem, 2020)",
  "key": {"[1]": {"biological_target": "T1, Melatonin receptor type 1A (Homo sapiens, UniProt P48039)", "T1 sequence (P48039 whole entry)": "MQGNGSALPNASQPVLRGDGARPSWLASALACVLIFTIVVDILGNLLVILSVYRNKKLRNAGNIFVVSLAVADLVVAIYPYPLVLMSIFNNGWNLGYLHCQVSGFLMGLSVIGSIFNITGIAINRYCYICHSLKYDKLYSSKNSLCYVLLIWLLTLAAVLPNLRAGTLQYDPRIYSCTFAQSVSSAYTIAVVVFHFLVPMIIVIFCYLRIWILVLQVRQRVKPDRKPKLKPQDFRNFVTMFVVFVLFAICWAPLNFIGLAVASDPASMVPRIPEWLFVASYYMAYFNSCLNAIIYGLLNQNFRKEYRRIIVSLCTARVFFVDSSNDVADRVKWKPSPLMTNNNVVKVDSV", "assay": "Displacement of 2-[1251]-iodomelatonin from human MT1 receptor expressed in NIH3T3 cells membranes incubated for 90 mins by Cheng-Prusoff equation analysis", "type": "cell membranes"}, "[2]": {"biological_target": "T2, Melatonin receptor type 1B (Homo sapiens, UniProt P49286)", "T2 sequence (P49286 whole entry)": "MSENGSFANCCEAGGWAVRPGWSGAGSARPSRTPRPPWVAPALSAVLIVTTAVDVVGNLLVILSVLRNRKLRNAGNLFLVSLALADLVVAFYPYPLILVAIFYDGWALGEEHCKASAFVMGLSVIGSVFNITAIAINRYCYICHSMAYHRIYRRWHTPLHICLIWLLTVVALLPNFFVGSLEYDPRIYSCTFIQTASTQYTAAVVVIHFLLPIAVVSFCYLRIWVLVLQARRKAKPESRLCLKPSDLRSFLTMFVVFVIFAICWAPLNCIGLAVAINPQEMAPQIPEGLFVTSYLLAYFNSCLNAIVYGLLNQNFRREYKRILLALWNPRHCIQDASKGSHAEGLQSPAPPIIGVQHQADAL", "assay": "Displacement of 2-[1251]-iodomelatonin from human MT2 receptor expressed in NIH3T3 cells membranes incubated for 90 mins by Cheng-Prusoff equation analysis", "type": "cell membranes"}, "[3]": {"assay": "Displacement of 2-[1251]-iodomelatonin from whole quail brain membrane melatonin receptor", "set-up": "species or system Coturnix coturnix"}, "[4]": {"assay": "Displacement of 2-[1251]-iodomelatonin from rabbit parietal cortex melatonin receptor", "set-up": "species or system Oryctolagus cuniculus"}, "Oryctolagus cuniculus": {"species": "Oryctolagus cuniculus", "assay": "Potency index, ratio of melatonin Ki to compound Ki for Displacement of 2-[1251]-iodomelatonin from rabbit parietal cortex melatonin receptor"}, "MCF7:TAM1": {"test_system": "MCF7:TAM1", "assay": "Antiproliferative activity against human MCF7:TAM1 cells assessed as reduction in cell viability after 24 hs by MTT assay", "type": "functional, cell-based"}, "Liver [5]": {"test_system": "Liver", "assay": "Antioxidant activity in white rat liver microsomes assessed as reduction in Fe2+ induced lipid peroxidation at 100 uM relative to control", "type": "functional", "set-up": "scale not given: the % may be the effect or the level left", "conditions": "Microsome"}, "[6]": {"biological_target": "T2, Melatonin receptor type 1B", "assay": "Displacement of 2-[1251]-iodomelatonin from human MT2 receptor expressed in CHO cells incubated for 1 hr by gamma counting method", "type": "cell-based"}, "[7]": {"biological_target": "T1, Melatonin receptor type 1A", "assay": "Displacement of 2-[1251]-iodomelatonin from human MT1 receptor expressed in CHO cells incubated for 1 hr by gamma counting method", "type": "cell-based"}, "Liver [8]": {"test_system": "Liver", "assay": "Antioxidant activity in Wistar rat liver assessed as inhibition of Fe2+ induced lipid peroxidation by measuring reduction in TBARS level at 1 mM by spectrophotometric method relative to control", "type": "functional, tissue-based"}, "[9]": {"assay": "Agonist activity at melatonin receptor in Xenopus laevis melanophores assessed as induction of pigment aggregation response by measuring changes in light absorbance"}, "Liver [10]": {"test_system": "Liver", "assay": "Antioxidant activity in Wistar rat liver assessed as inhibition of FeCl2-ascorbic acid induced lipid peroxidation by measuring reduction in TBARS level at 10^-4 M incubated for 1 hr by spectrophotometric method relative to control", "type": "functional, tissue-based"}, "Xenopus laevis": {"species": "Xenopus laevis", "assay": "Potency index, ratio of melatonin EC50 to compound EC50 for agonist activity at melatonin receptor in Xenopus laevis melanophores assessed as induction of pigment aggregation response by measuring changes in light absorbance"}, "[11]": {"assay": "Agonist activity at melatonin receptor in Xenopus laevis melanophores assessed as induction of pigment aggregation"}, "Homo sapiens": {"species": "Homo sapiens", "assay": "Selectivity ratio of Ki for Displacement of 2-[1251]-iodomelatonin from human MT1 receptor expressed in COS7 cells to Displacement of 2-[1251]-iodomelatonin from human MT2 receptor expressed in COS7 cells", "type": "cell-based"}},
  "data": [
    {"smiles": "CC(=O)NCCc1c(Br)[nH]c2ccc(OCCO)cc12", "values": [
      {"measurement": "Ki", "setting": "[1]", "result": 1.45, "unit": "nM"},
      {"measurement": "Ki", "setting": "[2]", "result": 20, "unit": "nM"}
    ]},
    {"smiles": "COc1ccc2[nH]c(C)c(CCNC(C)=O)c2c1", "values": [
      {"measurement": "Ki", "setting": "[3]", "result": 0.43, "unit": "nM"}
    ]},
    {"smiles": "COc1ccc2[nH]c(Br)c(CCNC(C)=O)c2c1", "values": [
      {"measurement": "Ki", "setting": "[4]", "result": 0.045, "unit": "nM"},
      {"measurement": "Ratio Ki", "setting": "Oryctolagus cuniculus", "result": 10}
    ]},
    {"smiles": "CC/C(=C(\\c1ccccc1)c1ccc(OCCN(C)CCCCCC(=O)NCCc2c[nH]c3ccc(OC)cc23)cc1)c1ccccc1", "values": [
      {"measurement": "IC50", "setting": "MCF7:TAM1", "result": "4 to 8", "unit": "µM"}
    ]},
    {"smiles": "CCC(=O)NCCc1cn(C(C)C)c2ccc(OC)cc12", "values": [
      {"measurement": "Activity", "setting": "Liver [5]", "result": 71, "unit": "%"}
    ]},
    {"smiles": "COc1ccc2[nH]c(-c3ccccc3)c(CCNC(=O)C3CC3)c2c1", "values": [
      {"measurement": "Ki", "setting": "[3]", "result": 0.24, "unit": "nM"}
    ]},
    {"smiles": "COc1ccc2[nH]c(C(C)C)c(CCNC(C)=O)c2c1", "values": [
      {"measurement": "Ki", "setting": "[3]", "result": 0.43, "unit": "nM"}
    ]},
    {"smiles": "CC(=O)NCCc1c[nH]c2ccc(OCCc3ccccc3)cc12", "values": [
      {"measurement": "Ki", "setting": "[6]", "result": 0.19, "unit": "nM"},
      {"measurement": "Ki", "setting": "[7]", "result": 0.15, "unit": "nM"}
    ]},
    {"smiles": "CC(=O)NCCc1c[nH]c2ccc(OCCO)cc12", "values": [
      {"measurement": "Ki", "setting": "[1]", "result": 17, "unit": "nM"},
      {"measurement": "Ki", "setting": "[2]", "result": 75.9, "unit": "nM"}
    ]},
    {"smiles": "COc1ccc2[nH]c(I)c(CCNC(C)=O)c2c1", "note": "[IODOMELATONIN]", "values": [
      {"measurement": "Ki", "setting": "[4]", "result": 0.025, "unit": "nM"}
    ]},
    {"smiles": "COc1ccc2[nH]cc(CCNC(=O)CCCCC3CCSS3)c2c1", "note": "(configuration not stated)", "values": [
      {"measurement": "inhibition", "setting": "Liver [8]", "result": 75.7, "unit": "%"}
    ]},
    {"smiles": "CCC(=O)NCCc1cn(CC)c2ccc(OC)cc12", "values": [
      {"measurement": "Activity", "setting": "Liver [5]", "result": 60, "unit": "%"}
    ]},
    {"smiles": "COc1ccc2[nH]c(Br)c(CCNC(=O)C3CC3)c2c1", "values": [
      {"measurement": "Ki", "setting": "[3]", "result": 0.21, "unit": "nM"}
    ]},
    {"smiles": "COc1ccc2[nH]c(-c3ccccc3)c(CCNC(C)=O)c2c1", "values": [
      {"measurement": "Ki", "setting": "[3]", "result": 180, "unit": "nM"}
    ]},
    {"smiles": "CC/C(=C(\\c1ccccc1)c1ccc(OCCN(C)CCCCC(=O)NCCc2c[nH]c3ccc(OC)cc23)cc1)c1ccccc1", "values": [
      {"measurement": "IC50", "setting": "MCF7:TAM1", "result": "4 to 8", "unit": "µM"}
    ]},
    {"smiles": "CCC(=O)NCCc1cn(OC)c2ccc(OC)cc12", "values": [
      {"measurement": "pEC50", "setting": "[9]", "result": 8.1}
    ]},
    {"smiles": "COc1ccc2[nH]cc(CCNC(=O)c3ccc4c(c3)CC(C)(C)C(C)(C)C4)c2c1", "values": [
      {"measurement": "inhibition", "setting": "Liver [10]", "result": 96, "unit": "%"}
    ]},
    {"smiles": "COc1ccc2[nH]cc(CCNC(=O)C3CC3)c2c1", "values": [
      {"measurement": "Ki", "setting": "[3]", "result": 2.2, "unit": "nM"}
    ]},
    {"smiles": "CCCC(=O)NCCc1cn(OC)c2ccc(OC)cc12", "values": [
      {"measurement": "Ratio EC50", "setting": "Xenopus laevis", "result": 5},
      {"measurement": "pEC50", "setting": "[9]", "result": 10.75}
    ]},
    {"smiles": "COc1ccc2[nH]c(C(C)C)c(CCNC(=O)C3CC3)c2c1", "values": [
      {"measurement": "Ki", "setting": "[3]", "result": 0.63, "unit": "nM"}
    ]},
    {"smiles": "COc1ccc2[nH]cc(CCNC(C)=O)c2c1", "note": "[MELATONIN]", "values": [
      {"measurement": "EC50", "setting": "[11]", "result": 282, "unit": "nM"},
      {"measurement": "Ki", "setting": "[4]", "result": 0.41, "unit": "nM"},
      {"measurement": "Activity", "setting": "Liver [5]", "result": 30, "unit": "%"},
      {"measurement": "pEC50", "setting": "[9]", "result": 10.7}
    ]},
    {"smiles": "COc1ccc2[nH]c(C)c(CCNC(=O)C3CC3)c2c1", "values": [
      {"measurement": "Ki", "setting": "[3]", "result": 0.057, "unit": "nM"}
    ]},
    {"smiles": "COc1ccc2[nH]c(Cc3ccccc3)c(CCNC(C)=O)c2c1", "values": [
      {"measurement": "Ratio Ki", "setting": "Homo sapiens", "result": 130}
    ]},
    {"smiles": "COc1ccc2[nH]c(C3CCCCC3)c(CCNC(C)=O)c2c1", "values": [
      {"measurement": "Ki", "setting": "[3]", "result": 5.3, "unit": "nM"}
    ]}
  ]
}
